The results in this text go back to US6608086B2, “Dihydropyridines and new uses thereof” (Synaptic Pharmaceutical Corporation, priority 1993, dated 2003).

Data set [1] concerns the target T1, α1A Human Adrenergic Receptor (Homo sapiens, UniProt P25100).
T1 construct: The entire coding region of α1A (1719 bp); expressed in transfected cells
T1 sequence (P25100 1-572): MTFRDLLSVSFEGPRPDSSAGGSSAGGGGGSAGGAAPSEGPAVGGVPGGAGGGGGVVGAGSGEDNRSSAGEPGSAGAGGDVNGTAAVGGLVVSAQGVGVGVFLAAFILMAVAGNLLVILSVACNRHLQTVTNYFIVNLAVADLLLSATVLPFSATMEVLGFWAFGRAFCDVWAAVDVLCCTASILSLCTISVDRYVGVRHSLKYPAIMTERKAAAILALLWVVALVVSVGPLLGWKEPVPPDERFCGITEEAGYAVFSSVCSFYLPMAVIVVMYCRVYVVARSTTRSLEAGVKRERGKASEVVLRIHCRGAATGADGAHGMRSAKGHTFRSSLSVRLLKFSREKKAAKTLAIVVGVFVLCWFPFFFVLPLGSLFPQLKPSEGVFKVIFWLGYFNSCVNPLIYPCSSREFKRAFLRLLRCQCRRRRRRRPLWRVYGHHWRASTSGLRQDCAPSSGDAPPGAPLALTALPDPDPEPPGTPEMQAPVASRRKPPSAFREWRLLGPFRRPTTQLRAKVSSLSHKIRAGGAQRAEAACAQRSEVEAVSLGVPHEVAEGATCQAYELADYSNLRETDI
As to the kind of experiment: Radioligand binding, [3H]prazosin, cloned human α1A adrenergic receptor. The gist of the method:
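Competition binding used membrane preparations of transfected LM(tk−) cells and the α1 antagonist [3H]prazosin at 0.5 nM, incubated 20 min at 37° C in Tris-HCl buffer, pH 7.5.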

Data set [2] concerns the target T2, α1C Human Adrenergic Receptor (Homo sapiens, UniProt P35348).
T2 construct: The entire coding region of α1C (1401 bp); expressed in transfected cells
T2 sequence (P35348 1-466): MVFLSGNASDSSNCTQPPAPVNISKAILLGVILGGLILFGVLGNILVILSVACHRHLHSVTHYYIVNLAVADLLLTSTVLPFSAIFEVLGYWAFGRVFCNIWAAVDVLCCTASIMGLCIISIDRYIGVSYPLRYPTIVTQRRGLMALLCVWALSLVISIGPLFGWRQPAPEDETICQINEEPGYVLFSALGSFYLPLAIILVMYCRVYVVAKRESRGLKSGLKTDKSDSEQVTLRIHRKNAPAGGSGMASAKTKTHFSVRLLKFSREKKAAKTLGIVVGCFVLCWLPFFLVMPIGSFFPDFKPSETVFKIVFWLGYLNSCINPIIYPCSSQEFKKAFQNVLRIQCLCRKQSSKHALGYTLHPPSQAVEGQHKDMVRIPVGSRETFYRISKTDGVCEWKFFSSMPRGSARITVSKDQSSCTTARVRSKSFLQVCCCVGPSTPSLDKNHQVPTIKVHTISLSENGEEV
As to the kind of experiment: Radioligand binding, [3H]prazosin, cloned human α1C adrenergic receptor. The procedure, abridged:
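Stably transfected mouse LM(tk−) fibroblast membranes bearing the cloned human α1C adrenoceptor served as receptor source. Specific binding was taken as the portion of 0.5 nM [3H]prazosin displaceable by 10 μM phentolamine after 20 min at 37° C., pH 7.5, in Mg2+/ascorbate-containing Tris buffer.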

The next data set deals with T3, L-type calcium channel (Rattus norvegicus, UniProt P22002).
T3 construct: membrane fragments of rat cardiac muscle; from tissue; host or cells: rat cardiac muscle membranes
The data set can be described thus: Competition binding of [3H]nitrendipine to membrane fragments of rat cardiac muscle. As for the experimental part:
The protocols for these experiments are given below.
Determination of the Activity of al Antagonists at Calcium Channels
Briefly, the tissue was minced and homogenized in 50 mM Tris-HCl (pH 7.4) containing 0.1 mM phenylmethylsulfonyl fluoride. The homogenates were centrifuged at 1000 g for 15 minutes, the resulting supernatant was centrifuged at 45,000 g for 15 minutes. The 45,000 g pellet was suspended in buffer and centrifuged a second time. Aliquots of membrane protein were incubated for 30 minutes at 37° C. in the presence of [3H]nitrendipine (1 nM), and nonspecific binding was determined in the presence of 10 μM nifedipine. The bound radioligand was separated by filtration through GF/B filters using a cell harvester.

The target of data set [3] is T4, α1B Human Adrenergic Receptor (Homo sapiens, UniProt P35368).
T4 construct: The entire coding region of α1B (1563 bp); expressed in transfected cells
T4 sequence (P35368 1-520): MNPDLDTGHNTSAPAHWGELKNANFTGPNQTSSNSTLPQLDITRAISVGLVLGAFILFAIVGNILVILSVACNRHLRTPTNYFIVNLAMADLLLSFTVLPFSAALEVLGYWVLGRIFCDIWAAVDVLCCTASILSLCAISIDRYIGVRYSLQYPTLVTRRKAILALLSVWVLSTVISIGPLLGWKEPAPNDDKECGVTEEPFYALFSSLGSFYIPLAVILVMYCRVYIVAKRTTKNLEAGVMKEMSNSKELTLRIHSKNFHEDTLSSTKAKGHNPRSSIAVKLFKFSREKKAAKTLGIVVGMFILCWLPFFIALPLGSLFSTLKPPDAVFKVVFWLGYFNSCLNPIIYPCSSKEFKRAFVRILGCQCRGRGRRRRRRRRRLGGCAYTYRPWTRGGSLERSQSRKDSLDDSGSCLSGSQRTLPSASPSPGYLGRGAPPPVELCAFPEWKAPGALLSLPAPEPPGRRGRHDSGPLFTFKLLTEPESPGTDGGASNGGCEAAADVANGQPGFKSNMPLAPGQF
As to the kind of experiment: Radioligand binding, [3H]prazosin, cloned human α1B adrenergic receptor. The gist of the method:
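Membranes from stably transfected LM(tk−) cells, resuspended in 50 mM Tris-HCl, 1 mM MgCl2, 0.1% ascorbic acid, pH 7.5, were incubated with 0.5 nM [3H]prazosin for 20 min at 37° C. Nonspecific binding defined with 10 μM phentolamine; bound ligand separated by GF/B filtration.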

[4] abbreviates: [3H]prazosin, cloned human receptor, LM(tk-) cell membranes, mean, read-out: PKi alpha-1 1a (converted).
The mark [5] stands for this setting: cloned human receptor, LM(tk-) cell membranes, mean, read-out: PKi alpha-1 1c (converted).
Setting [6] is: [3H]nitrendipine, rat cardiac muscle membranes, mean, read-out: PKi Ca (converted).
The mark [7] stands for this setting: cloned human receptor, LM(tk-) cell membranes, mean, read-out: PKi alpha-1 1b (converted).
The mark [8] stands for this setting: PKi alpha-1 1a, [3H]prazosin, cloned human receptor, LM(tk-) cell membranes, mean.
The mark [9] stands for this setting: PKi alpha-1 1c, cloned human receptor, LM(tk-) cell membranes, mean.
[10] abbreviates: PKi alpha-1 1b, cloned human receptor, LM(tk-) cell membranes, mean.

Structures are written as SMILES. Like-named read-outs stand apart in the source and are kept apart here.

T3 sequence (P22002 whole entry, other chains not shown, the tested form may be a part): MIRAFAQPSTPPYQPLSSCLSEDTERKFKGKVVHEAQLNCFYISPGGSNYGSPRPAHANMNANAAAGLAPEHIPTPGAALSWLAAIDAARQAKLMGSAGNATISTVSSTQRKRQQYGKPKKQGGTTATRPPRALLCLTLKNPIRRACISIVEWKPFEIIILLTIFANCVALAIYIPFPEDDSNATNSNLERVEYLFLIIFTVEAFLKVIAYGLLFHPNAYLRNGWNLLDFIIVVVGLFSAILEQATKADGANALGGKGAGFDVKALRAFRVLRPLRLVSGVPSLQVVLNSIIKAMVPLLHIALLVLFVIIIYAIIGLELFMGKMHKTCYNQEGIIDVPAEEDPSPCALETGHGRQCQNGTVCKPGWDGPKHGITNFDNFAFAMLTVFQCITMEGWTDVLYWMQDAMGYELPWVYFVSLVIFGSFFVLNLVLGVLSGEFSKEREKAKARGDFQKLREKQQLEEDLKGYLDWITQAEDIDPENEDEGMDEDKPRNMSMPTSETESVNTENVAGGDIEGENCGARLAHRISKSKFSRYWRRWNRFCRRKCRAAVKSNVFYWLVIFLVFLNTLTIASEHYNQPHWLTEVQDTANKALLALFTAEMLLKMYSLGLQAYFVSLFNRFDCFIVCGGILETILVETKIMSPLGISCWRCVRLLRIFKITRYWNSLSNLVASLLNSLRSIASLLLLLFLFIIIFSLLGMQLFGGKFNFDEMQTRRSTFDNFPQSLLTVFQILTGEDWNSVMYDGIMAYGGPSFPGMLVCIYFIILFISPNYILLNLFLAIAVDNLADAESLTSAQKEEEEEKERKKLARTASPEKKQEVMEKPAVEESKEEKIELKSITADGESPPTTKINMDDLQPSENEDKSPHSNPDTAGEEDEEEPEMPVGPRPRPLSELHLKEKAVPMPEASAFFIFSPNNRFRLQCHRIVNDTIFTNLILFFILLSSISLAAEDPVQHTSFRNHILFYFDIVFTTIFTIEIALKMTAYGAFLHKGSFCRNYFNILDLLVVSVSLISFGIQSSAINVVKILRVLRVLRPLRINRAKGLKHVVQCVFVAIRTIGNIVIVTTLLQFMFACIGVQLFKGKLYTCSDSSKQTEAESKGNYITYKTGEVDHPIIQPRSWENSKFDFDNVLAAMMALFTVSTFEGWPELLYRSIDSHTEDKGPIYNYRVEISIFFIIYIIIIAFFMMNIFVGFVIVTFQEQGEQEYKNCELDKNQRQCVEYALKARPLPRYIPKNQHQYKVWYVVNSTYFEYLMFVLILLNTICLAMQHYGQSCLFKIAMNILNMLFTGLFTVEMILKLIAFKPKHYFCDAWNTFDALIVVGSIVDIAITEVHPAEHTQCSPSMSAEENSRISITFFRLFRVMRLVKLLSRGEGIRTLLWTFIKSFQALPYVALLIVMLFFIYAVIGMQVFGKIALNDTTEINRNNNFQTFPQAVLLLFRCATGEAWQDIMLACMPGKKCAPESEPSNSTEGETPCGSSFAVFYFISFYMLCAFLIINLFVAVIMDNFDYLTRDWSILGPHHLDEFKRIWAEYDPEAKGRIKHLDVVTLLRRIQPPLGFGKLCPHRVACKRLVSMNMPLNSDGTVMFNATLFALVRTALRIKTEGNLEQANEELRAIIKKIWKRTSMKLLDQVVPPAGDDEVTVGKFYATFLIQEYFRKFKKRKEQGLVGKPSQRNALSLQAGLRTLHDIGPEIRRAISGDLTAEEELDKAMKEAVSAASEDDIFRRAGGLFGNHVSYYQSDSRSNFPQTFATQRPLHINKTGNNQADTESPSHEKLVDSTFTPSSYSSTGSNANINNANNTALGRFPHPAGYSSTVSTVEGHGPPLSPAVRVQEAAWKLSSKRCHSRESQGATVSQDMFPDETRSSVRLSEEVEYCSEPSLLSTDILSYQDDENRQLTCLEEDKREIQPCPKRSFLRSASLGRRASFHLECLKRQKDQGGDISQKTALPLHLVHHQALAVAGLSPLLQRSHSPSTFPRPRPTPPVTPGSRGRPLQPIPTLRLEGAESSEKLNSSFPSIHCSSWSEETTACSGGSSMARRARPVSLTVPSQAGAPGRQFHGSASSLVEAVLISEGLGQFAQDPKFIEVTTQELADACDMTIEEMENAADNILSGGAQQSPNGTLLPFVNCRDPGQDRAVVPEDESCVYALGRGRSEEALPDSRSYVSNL
T3 sequence (P54290 25-944 partner limits assumed, other chains not shown): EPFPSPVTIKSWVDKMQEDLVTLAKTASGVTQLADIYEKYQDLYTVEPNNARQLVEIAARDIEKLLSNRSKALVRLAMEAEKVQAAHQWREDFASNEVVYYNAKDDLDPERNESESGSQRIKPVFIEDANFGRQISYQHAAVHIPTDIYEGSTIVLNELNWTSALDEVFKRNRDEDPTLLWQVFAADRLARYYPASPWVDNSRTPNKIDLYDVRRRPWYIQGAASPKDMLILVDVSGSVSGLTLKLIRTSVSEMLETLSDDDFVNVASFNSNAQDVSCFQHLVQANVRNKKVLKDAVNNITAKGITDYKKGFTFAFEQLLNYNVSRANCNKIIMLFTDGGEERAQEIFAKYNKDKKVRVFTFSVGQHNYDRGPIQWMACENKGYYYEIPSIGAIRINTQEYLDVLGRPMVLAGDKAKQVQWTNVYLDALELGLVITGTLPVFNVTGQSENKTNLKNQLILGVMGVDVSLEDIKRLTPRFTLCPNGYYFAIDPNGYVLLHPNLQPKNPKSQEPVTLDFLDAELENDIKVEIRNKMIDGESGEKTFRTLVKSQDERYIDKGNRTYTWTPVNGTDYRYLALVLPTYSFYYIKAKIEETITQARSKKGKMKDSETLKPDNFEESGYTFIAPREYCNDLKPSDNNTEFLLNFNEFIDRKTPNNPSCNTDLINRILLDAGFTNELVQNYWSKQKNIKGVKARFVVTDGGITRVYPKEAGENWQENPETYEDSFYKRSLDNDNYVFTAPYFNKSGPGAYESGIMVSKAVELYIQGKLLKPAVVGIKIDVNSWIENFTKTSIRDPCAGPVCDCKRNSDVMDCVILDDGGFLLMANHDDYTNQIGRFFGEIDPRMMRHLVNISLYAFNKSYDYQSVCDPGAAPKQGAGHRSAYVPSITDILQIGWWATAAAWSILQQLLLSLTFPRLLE
T3 sequence (P54290 945-1091 partner limits assumed, other chains not shown): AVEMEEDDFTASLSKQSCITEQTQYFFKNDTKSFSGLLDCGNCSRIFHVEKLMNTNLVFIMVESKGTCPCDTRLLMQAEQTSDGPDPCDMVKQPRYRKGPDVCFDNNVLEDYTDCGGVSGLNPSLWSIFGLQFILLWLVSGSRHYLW

`CCC1=C(C(=O)NC)C(c2ccc([N+](=O)[O-])cc2)C(C(=O)NCCCN2CCC(C(=O)OC)(c3ccccc3)CC2)=C(COCCN=[N+]=[N-])N1` (stereo not drawn) [Example 228, 2-((2-Azidoethyl)oxy)methyl-6-ethyl-1,4-dihydro-3-(N-(3-(4-methoxycarbonyl-4-phenylpiperidin-1-yl)propyl))carbo xamido-5-N-methylcarboxamido-4-(4-nitro)phenylpyridine]: the melting point lay in the range of 73 to 83 °C. In addition, in data set [1] (setting [4]), the Ki is 3470 nM. For the same compound, the Ki in data set [2] (setting [5]) was 16.6 nM. At L-type calcium channel (setting [6]), the Ki is 33900 nM. Further, the Ki in data set [3] (setting [7]) is 1480 nM.

For `CCC1=C(C(=O)OC)C(c2ccc([N+](=O)[O-])cc2)C(C(=O)NCCCN2CCC(C(=O)OC)(c3ccccc3)CC2)=C(COCCN=[N+]=[N-])N1` (stereo not drawn) [Example 232, 2-((2-Azidoethyl)oxy)methyl-6-ethyl-5-methoxycarbonyl-3-(N-(3 (4-methoxycarbonyl-4-phenylpiperidin-1-yl)propyl))carbo xamido-1,4-dihydro-4-(4-nitro)phenylpyridine], the melting point lay within 50 to 60 °C. This compound had a Ki in data set [1] (PKi alpha-1 1a) of 417 nM. For the same compound, in data set [2] (setting [5]), the Ki was 7.59 nM. Moreover, on L-type calcium channel (PKi Ca), the Ki was 692 nM. Moreover, the Ki in data set [3] (setting [7]) was 219 nM.

On to `CCC1=C(C(N)=O)C(c2ccc([N+](=O)[O-])cc2)C(C(=O)NCCCN2CCC(C(=O)OC)(c3ccccc3)CC2)=C(COCCN=[N+]=[N-])N1` (stereo not drawn) [Example 231, 2-((2-Azidoethyl)oxy)methyl-5-carboxamido-6-ethyl-1,4-dihydro-3-(N-(3-(4-methoxycarbonyl-4-phenylpiperidin-1-yl)propyl))carboxamido-4-(4-nitro)phenylpyridine], for which the melting point lay within 70 to 75 °C. In data set [1] (setting [4]), the Ki is 1230 nM. Besides, in data set [2] (setting [5]), the Ki is 4.37 nM. The Ki at L-type calcium channel (setting [6]) is 389000 nM. The Ki in data set [3] (setting [7]) was 501 nM.

As to `CCC1=C(C(=O)O)C(c2ccc([N+](=O)[O-])cc2)C(C(=O)NCCCN2CCC(c3ccccc3)(c3ccccc3)CC2)=C(COCCN)N1` (stereo not drawn) [Example 219, 2-((2-Aminoethyl)oxy)methyl-6-ethyl-1,4-dihydro-4-(4-nitro)phenyl-3-(N-(3-(4,4-diphenylpiperidin-1-yl)propyl))carboxamidopyridine-5-carboxylic Acid], the melting point was 180 °C (dec.). Further, in data set [1] (setting [8]), the Ki is 2690 nM. Besides, the Ki in data set [2] (setting [9]) is 30.2 nM. In addition, on L-type calcium channel (setting [6]), the Ki was 575000 nM. In addition, in data set [3] (setting [10]), the Ki is 1230 nM.

Turning to `CCC1=C(C(=O)OCCC#N)C(c2ccc([N+](=O)[O-])cc2)C(C(=O)NCCCN2CCC(C#N)(c3ccccc3)CC2)=C(COC)N1` (stereo not drawn) [Example 220, 5-(2-Cyanoethoxy)carbonyl-3-(N-(3-(4-cyano-4-phenylpiperidin-1-yl)propyl))carboxamido-6-ethyl-1,4-dihydro-2-methyloxymethyl-4-(4-nitro)phenylpyridine], the melting point is 58 to 68 °C. In data set [1] (setting [8]), this compound gave a Ki of 2140 nM. For the same compound, the Ki in data set [2] (setting [9]) was 9.77 nM. For the same compound, the Ki on L-type calcium channel (setting [6]) was 437000 nM. This compound also had a Ki in data set [3] (setting [10]) of 525 nM.

`COc1ccc(C2(c3ccccc3)CCN(CCCNC(=O)C3=C(COCCN=[N+]=[N-])NC(C)=C(C(N)=O)C3c3ccc([N+](=O)[O-])cc3)CC2)cc1` (stereo not drawn) [Example 184, 2-[(2-Azidoethoxy)methyl]-5-carboxamido-1,4-dihydro-3-{N-[3-(4-(4-methoxyphenyl)-4-phenylpiperidin-1-yl)propyl]}carboxamido-6-methyl-4-(4-nitrophenyl)pyridine] had a melting point of 105 to 107 °C. Also, the Ki in data set [1] (setting [8]) was 741 nM. In addition, in data set [2] (setting [9]), the Ki was 9.55 nM. In addition, the Ki at L-type calcium channel (setting [6]) is 12300 nM. For the same compound, the Ki in data set [3] (setting [10]) was 174 nM.

Consider `CCC1=C(C(=O)NCCCN2CCC(c3ccccc3)(c3ccccc3)CC2)C(c2ccc([N+](=O)[O-])cc2)C(C(=O)NC(C)C)=C(CC)N1` (stereo not drawn) [Example 132], for which the melting point was 201 °C (dec.). Also, in data set [1] (pKi alpha-1 1a, [3H]prazosin, cloned human α1A receptor, LM(tk−) cell membranes), the Ki is 776 nM. This compound showed a Ki in data set [2] (pKi alpha-1 1c, cloned human α1C receptor, LM(tk−) cell membranes) of 57.5 nM. In addition, the Ki at L-type calcium channel ([3H]nitrendipine, rat cardiac muscle membrane fragments, L-type calcium channel, read-out: pKi Ca (converted)) was 79400 nM. Moreover, in data set [3] (pKi alpha-1 1b, cloned human α1B receptor, LM(tk−) cell membranes), the Ki was 389 nM.

Take `CCNC(=O)C1=C(CC)NC(COCCN=[N+]=[N-])=C(C(=O)NCCCN2CCC(C(=O)OC)(c3ccccc3)CC2)C1c1ccc([N+](=O)[O-])cc1` (stereo not drawn) [Example 230, 2-((2-Azidoethyl)oxy)methyl-6-ethyl-5-N-ethylcarboxamido-1,4-dihydro-3-(N-(3-(4-methoxycarbonyl-4-phenylpiperidin-1-yl)propyl))carboxamido-4-(4-nitro)phenylpyridine]: the melting point was 70 °C (dec.). For the same compound, the Ki in data set [1] (setting [4]) is 1780 nM. Also, in data set [2] (setting [5]), the Ki is 8.71 nM. In addition, on L-type calcium channel (setting [6]), the Ki was 9120 nM. In addition, the Ki in data set [3] (setting [7]) is 692 nM.

`CCC1=C(C(=O)OCCC#N)C(c2ccc([N+](=O)[O-])cc2)C(C(=O)NCCCN2CCC(C(=O)OC)(c3ccccc3)CC2)=C(COCCN=[N+]=[N-])N1` (stereo not drawn) [Example 226, 2-((2-Azidoethyl)oxy) methyl-5-(2-cyanoethoxy) carbonyl-6-ethyl-1,4-dihydro-3-(N-(3-(4-methoxycarbonyl-4-phenylpiperidin-1-yl)propyl))carboxamido-4-(4-nitro)phenylpyridine] showed a melting point of 54 to 60 °C. Further, the Ki in data set [1] (setting [4]) is 224 nM. The Ki in data set [2] (setting [5]) was 11 nM. In addition, the Ki on L-type calcium channel (setting [6]) was 8710 nM. For the same compound, the Ki in data set [3] (setting [7]) was 97.7 nM.
